Assay results from patent publication US5891620A, “Steroid sulfatase assay” (Imperial College of Science, Technology and Medicine, priority 1994, dated 1999).

Tested on: Oestrone sulphatase activity in human white blood cells
Experiment: Oestrone sulphatase activity in white blood cells of volunteers after an oral dose of inhibitor
Assay type: in vivo
Settings: two healthy male volunteers; single oral dose 0.5 mg/Kg; white blood cells from blood samples taken for up to 28 days
Protocol: Purified leukocytes (according to Tulchinsky JCEM 65, 1026, 1987) from 10 ml whole blood are suspended in 1 ml PBS-sucrose. 0.2 ml of this is used for EST assay as above (incubated for 2 hr at 37° C. in a final volume of 1 ml).
After incubation, samples are extracted with 4 ml toluene. 2 ml of this is counted in 10 ml Scintillant.
The assay of the present invention, as described above, was investigated using two healthy, male volunteers whom received an oral dose of a steroid sulphatase inhibitor (Oestrone-3-O-sulphamate, 0.5 mg/Kg). In this regard, white blood cells were prepared from blood samples obtained from the subjects for up to 28 days. […] The results from this study confirm that the measurement of Oestrone Sulphatase activity in white blood cells will therefore allow the extent and duration of sulphatase inhibition to be monitored in subjects receiving steroid sulphatase inhibitors therapeutically. More details and results of these studies are shown in the attached FIG. 30. […] In particular, the assay of the present invention allows one to measure oestrone sulphatase activity in human white blood cells to monitor the extent of oestrone sulphatase inhibition.

SMILES: C[C@]12CC[C@@H]3c4ccc(OS(N)(=O)=O)cc4CC[C@H]3[C@@H]1CCC2=O [Oestrone-3-O-sulphamate]
- inhibition of Oestrone sulphatase activity in white blood cells: significant inhibition
